Test results taken from ChEMBL document CHEMBL1201862, “PubChem BioAssay data set” (2004).
Activity calls are given as the source filed them.

How the values were obtained:
[1] = molecular target: T1, Sentrin-specific protease 8 (Homo sapiens, UniProt Q96LD8); assay type: functional;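 further: kinetic enzyme assay of SENP8 cleaving a Nedd8 protein substrate, dose-response confirmation of screening hits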
T1 sequence (Q96LD8 whole entry): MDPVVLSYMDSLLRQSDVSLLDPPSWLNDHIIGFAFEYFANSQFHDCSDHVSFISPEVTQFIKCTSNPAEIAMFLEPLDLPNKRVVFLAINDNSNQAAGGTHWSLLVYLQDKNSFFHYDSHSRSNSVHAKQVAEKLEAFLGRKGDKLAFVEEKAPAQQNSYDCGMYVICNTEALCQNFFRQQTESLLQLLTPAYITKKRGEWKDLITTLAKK

[2] = molecular target: T2, Replicative DNA helicase DnaB (Mycobacterium tuberculosis, UniProt P9WMR3); test: DnaB intein splicing inhibitors, dose response, biochemical, cell-free fluorescence (AID 449749); assay type: functional
T2 sequence (P9WMR3 whole entry): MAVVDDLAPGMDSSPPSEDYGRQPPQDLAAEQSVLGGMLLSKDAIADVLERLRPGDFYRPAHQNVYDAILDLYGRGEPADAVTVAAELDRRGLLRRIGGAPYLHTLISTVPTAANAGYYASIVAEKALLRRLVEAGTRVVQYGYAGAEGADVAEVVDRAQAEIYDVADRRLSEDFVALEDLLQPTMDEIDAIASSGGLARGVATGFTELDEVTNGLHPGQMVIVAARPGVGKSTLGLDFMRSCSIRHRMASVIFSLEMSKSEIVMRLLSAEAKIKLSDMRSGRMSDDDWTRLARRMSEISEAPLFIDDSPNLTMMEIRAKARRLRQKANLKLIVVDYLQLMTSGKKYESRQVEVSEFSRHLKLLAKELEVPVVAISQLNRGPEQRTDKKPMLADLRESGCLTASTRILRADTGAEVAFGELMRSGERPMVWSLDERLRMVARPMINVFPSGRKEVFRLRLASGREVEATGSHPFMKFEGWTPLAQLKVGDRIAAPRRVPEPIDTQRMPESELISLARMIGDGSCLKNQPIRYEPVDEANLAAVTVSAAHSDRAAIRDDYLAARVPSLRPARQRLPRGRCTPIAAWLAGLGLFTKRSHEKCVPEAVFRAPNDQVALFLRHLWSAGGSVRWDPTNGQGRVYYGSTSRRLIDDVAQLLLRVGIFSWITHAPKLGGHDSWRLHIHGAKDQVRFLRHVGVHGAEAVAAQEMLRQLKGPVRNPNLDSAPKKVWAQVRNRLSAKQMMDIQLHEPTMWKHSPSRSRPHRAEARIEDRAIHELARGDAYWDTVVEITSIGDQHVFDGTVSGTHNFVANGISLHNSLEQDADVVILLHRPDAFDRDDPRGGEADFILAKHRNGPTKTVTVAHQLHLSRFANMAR

[3] = molecular target: T3, Protein RecA (Mycobacterium tuberculosis, UniProt P9WHJ3); test: Fluorescence Cell-Free Homogeneous Dose Retest to Identify Inhibitors of RecA-Intein Splicing Activity. [Related pubchem assays (depositor defined):AID2097, AID2223, AID489010, AID492950]; assay type: functional
T3 sequence (P9WHJ3 whole entry): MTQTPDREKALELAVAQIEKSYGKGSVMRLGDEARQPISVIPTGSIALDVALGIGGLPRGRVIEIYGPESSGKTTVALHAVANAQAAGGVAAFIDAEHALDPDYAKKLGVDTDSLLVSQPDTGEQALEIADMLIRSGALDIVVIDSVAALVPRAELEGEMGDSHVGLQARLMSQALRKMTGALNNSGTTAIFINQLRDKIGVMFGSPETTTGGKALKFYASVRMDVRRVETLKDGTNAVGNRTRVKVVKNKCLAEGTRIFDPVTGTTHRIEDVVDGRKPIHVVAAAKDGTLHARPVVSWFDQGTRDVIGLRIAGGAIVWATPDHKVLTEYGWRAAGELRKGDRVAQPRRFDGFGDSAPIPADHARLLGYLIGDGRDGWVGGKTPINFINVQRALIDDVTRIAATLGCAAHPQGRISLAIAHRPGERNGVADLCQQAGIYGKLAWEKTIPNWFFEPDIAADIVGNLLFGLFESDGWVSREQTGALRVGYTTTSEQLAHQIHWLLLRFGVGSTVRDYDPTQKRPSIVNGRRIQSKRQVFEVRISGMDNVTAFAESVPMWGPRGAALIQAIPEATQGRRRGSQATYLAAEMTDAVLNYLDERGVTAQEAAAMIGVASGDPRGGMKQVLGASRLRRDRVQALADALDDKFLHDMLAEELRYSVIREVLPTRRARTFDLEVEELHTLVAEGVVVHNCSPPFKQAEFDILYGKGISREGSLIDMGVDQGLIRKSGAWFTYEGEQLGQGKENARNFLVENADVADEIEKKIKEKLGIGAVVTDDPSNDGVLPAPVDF

[4] = molecular target: T4, Tyrosyl-DNA phosphodiesterase 2 (Homo sapiens, UniProt O95551); test: potency against TDP2 phosphodiesterase activity – biochemical, epi absorbance, IC50, dose response (AID 743297)
T4 sequence (O95551 whole entry): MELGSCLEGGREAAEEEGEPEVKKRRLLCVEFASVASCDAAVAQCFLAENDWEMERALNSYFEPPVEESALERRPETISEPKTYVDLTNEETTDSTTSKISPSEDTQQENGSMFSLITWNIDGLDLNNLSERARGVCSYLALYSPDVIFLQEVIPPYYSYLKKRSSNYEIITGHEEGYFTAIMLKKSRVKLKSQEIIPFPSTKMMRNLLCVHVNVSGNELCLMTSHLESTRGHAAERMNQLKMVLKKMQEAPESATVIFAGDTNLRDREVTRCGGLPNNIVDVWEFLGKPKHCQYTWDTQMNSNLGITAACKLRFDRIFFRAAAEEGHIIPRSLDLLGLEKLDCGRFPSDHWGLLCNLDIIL

[5] = molecular target: T5, Orexin receptor type 2 (Homo sapiens, UniProt O43614); test: Counterscreen assay for antagonists of the orexin 1 receptor (OX1R; HCRTR1): Fluorescence-based cell-based dose response assay for antagonists of the orexin 2 receptor (OX2R; HCRTR2), run by assay provider.; assay type: functional
T5 sequence (O43614 whole entry): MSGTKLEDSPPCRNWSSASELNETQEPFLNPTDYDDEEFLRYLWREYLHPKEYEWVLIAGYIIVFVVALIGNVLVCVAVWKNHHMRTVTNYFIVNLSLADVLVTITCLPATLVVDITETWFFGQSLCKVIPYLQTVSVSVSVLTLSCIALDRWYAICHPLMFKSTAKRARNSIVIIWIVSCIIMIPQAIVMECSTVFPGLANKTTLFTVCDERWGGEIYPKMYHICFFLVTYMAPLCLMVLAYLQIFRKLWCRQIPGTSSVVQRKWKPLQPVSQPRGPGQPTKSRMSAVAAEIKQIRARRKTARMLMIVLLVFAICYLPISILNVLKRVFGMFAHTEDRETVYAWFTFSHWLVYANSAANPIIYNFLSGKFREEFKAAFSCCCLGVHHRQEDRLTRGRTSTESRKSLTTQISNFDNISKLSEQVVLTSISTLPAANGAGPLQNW

[6] = molecular target: T6, Orexin/Hypocretin receptor type 1 (Homo sapiens, UniProt O43613); test: (§1) Fluorescence-based cell-based high throughput dose response assay for antagonists of the orexin 1 receptor (OX1R; HCRTR1). [Related pubchem assays (depositor defined):AID434989, AID435008, AID463079, AID485270, AID492963, AID492964, AID492965, AID493232, AID504717, AID504718]; assay type: functional
T6 sequence (O43613 whole entry): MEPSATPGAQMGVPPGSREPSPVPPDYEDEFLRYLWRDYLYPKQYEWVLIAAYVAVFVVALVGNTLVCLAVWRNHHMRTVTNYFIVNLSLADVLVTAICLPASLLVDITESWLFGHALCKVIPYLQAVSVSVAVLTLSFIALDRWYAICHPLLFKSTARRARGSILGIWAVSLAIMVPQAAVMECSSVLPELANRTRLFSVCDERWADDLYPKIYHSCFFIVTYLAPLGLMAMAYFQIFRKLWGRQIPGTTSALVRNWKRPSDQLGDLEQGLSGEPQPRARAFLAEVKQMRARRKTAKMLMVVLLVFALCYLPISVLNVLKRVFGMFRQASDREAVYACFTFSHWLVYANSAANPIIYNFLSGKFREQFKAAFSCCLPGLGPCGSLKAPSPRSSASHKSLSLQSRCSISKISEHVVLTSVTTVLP

[7] = system: CHO-K1; test: (§2) Counterscreen for antagonists of the orexin 1 receptor (OX1R; HCRTR1): Homogeneous time resolved fluorescence (HTRF)-based cell-based dose response assay to identify antagonists of the parental CHO-K1 cell line. [Related pubchem assays (depositor defined):AID434989, AID435008, AID463079, AID485270, AID492963, AID492964, AID492965, AID493232, AID504699, AID504701]; assay type: functional; details: Cricetulus griseus
[8] = as §2, with “Fluorescence-based” for “Homogeneous time resolved fluorescence (HTRF)-based”, “cell-based high throughput” for “cell-based”, “CHO” for “CHO-K1”; assay type: functional
[9] = molecular target: T6, Orexin/Hypocretin receptor type 1; test: as §1, with “Homogeneous Time Resolved Fluorescence (HTRF)-based” for “Fluorescence-based”; assay type: functional
[10] = molecular target: T5, Orexin receptor type 2; test: Counterscreen assay for antagonists of the orexin 1 receptor (OX1R; HCRTR1): Homogeneous Time Resolved Fluorescence (HTRF)-based cell-based dose response assay for antagonists of the orexin 2 receptor (OX2R; HCRTR2), run by assay provider.; assay type: functional
[11] = molecular target: Prothrombin (Bos taurus, UniProt P00735); test: thrombin protease inhibitors – biochemical, fluorescence polarization, uHTS hits, dose response (AID 602369); assay type: functional
[12] = molecular target: 72 kDa type IV collagenase (Homo sapiens, UniProt P08253); test: Dose Response validation of uHTS RPN11 inhibitor hits using a MMP-2 Fluorescence assay.; assay type: functional
Sequence of 72 kDa type IV collagenase (P08253 whole entry): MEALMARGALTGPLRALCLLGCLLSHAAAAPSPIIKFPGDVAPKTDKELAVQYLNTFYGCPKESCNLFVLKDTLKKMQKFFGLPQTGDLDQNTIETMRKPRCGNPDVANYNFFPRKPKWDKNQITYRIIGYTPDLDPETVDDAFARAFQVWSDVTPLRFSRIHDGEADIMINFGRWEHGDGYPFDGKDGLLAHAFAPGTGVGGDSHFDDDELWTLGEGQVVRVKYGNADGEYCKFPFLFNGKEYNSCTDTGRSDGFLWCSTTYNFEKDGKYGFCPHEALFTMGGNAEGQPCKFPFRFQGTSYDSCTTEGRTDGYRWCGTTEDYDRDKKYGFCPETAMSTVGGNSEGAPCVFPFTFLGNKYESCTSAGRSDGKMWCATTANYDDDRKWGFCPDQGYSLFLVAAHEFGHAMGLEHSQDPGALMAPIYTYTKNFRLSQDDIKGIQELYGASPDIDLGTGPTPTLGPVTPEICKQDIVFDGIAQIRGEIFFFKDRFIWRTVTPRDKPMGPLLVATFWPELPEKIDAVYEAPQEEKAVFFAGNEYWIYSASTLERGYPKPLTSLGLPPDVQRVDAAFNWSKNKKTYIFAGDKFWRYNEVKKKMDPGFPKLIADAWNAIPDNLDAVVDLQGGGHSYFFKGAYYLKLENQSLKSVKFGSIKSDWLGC

[13] = molecular target: DNA (cytosine-5)-methyltransferase 1 (Homo sapiens, UniProt P26358); test: inhibition of DNA methylation by DNMT1 – biochemical, fluorescent molecular beacon, confirmation (AID 602386); assay type: functional
Sequence of DNA (cytosine-5)-methyltransferase 1 (P26358 whole entry): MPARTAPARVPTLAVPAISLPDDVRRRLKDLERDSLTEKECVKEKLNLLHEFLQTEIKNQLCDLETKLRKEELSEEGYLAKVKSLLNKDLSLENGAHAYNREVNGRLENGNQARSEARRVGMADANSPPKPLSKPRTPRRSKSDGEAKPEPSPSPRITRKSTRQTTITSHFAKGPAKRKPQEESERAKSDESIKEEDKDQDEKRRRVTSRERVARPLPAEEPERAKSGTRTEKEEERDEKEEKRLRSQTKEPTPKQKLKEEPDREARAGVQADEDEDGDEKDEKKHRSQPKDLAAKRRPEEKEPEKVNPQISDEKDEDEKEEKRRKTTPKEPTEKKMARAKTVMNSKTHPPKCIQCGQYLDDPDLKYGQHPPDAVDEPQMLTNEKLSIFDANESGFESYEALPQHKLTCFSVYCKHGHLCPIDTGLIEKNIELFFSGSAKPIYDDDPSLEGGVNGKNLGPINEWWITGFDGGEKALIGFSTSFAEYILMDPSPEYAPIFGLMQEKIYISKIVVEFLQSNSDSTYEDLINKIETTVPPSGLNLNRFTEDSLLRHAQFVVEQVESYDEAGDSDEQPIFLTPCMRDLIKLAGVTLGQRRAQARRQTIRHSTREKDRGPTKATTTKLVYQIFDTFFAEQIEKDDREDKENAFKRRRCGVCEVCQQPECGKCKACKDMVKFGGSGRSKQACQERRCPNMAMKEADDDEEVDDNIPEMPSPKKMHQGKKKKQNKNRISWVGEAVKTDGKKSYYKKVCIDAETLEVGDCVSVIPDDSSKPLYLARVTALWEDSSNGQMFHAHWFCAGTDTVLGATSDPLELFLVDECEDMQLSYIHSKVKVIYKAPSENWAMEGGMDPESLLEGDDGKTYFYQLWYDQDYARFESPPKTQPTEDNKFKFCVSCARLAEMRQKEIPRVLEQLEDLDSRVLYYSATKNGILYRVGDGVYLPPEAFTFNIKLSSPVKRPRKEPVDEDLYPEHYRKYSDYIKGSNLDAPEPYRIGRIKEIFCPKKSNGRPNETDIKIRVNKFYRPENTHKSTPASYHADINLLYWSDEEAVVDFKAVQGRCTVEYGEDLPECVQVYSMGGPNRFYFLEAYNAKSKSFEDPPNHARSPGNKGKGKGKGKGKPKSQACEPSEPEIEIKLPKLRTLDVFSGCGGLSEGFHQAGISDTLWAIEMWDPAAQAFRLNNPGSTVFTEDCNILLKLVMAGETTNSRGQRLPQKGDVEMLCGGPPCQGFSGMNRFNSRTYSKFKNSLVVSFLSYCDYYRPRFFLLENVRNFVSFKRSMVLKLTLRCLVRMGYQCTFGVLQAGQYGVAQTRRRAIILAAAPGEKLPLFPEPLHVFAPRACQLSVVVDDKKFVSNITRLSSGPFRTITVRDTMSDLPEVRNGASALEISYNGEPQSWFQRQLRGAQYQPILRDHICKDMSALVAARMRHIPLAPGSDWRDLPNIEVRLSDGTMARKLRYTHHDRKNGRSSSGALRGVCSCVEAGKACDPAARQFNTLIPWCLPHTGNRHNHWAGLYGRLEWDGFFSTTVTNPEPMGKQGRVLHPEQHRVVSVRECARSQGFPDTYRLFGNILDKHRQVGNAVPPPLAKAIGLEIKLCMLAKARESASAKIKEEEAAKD

[14] = molecular target: 26S proteasome non-ATPase regulatory subunit 14 (Homo sapiens, UniProt O00487); test: inhibition of proteasome subunit RPN11 – biochemical, fluorescence polarization, uHTS hits, confirmation (AID 602368); assay type: functional
Sequence of 26S proteasome non-ATPase regulatory subunit 14 (O00487 whole entry): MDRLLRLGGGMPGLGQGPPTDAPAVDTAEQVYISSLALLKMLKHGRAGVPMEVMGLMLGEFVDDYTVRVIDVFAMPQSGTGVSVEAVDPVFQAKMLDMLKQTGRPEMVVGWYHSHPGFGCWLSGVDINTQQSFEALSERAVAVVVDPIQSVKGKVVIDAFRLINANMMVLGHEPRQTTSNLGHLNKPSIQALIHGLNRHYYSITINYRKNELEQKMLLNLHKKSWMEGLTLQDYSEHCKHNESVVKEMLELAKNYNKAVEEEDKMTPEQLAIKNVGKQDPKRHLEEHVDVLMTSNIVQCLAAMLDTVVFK

With `COc1ccc(O)c(C(c2c(C)[nH][nH]c2=O)c2c(C)[nH][nH]c2=O)c1` the IC50 [1] was 7.14 µM (active), the AC50 [2] was 1.42 µM (active) and the EC50 [3] was 1.17 µM (active). The IC50 [4] was 33.6 µM (inactive).
With `Cc1ccc(NC2CCCN(C(=O)c3cccc(-c4ncc[nH]4)c3)C2)cc1C` (centres undefined) the IC50 [5] was 17.1 µM (inactive), the IC50 [6] was 2.99 µM (active) and the IC50 [7] was > 66.2 µM (inactive). For the same compound, the IC50 [8] was > 49.7 µM (inactive), the IC50 [9] was 175 nM (active) and the IC50 [10] was 4.48 µM (active).
With `O=C(O)CCCCCN1C(=O)/C(=C/c2cn(-c3ccccc3)nc2-c2cccs2)SC1=S` the IC50 [11] was 29 µM (active), the IC50 [12] was 10.3 µM (active) and the IC50 [13] was 5.56 µM (active). The IC50 [14] was 7.92 µM (active).
